The text below walks through data of PubChem BioAssay (NCI).

Among the test systems are SNB-19 CNS; HOP-62 NSCLC; DU-145 prostate; K-562 leukemia; ACHN renal; SNB-75 CNS; CAKI-1 renal; SN12C renal; M14 melanoma; SK-MEL-2 melanoma.
Assay in all cases: DTP human tumour cell line panel, 48 h

Molecules are shown by their SMILES. “And” between values parts separate entries of the source, which are not always exact repeats. Equal values may be shown once.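 Dose response: 5 concentrations. Exposure: 48 h. Format: 96-well plates. Endpoint: linear interpolation; highest concentration if not reached. GI50 marks 50% less growth. Definition used: TGI = concentration required for complete inhibition of growth.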

For orientation: GI50 means the concentration giving 50% growth inhibition. A word on the TGI: it is the concentration giving total growth inhibition. As for `O=C(Nc1cc(Cl)ccc1O)c1ccccc1Nc1ccnc(C(F)(F)F)c1`, the GI50 with SNB-19 CNS is 2.88 µM; with HOP-62 NSCLC, 2.16 µM; in the assay on DU-145 prostate, 3.69 µM; with K-562 leukemia it was 3.65 µM; in the assay with ACHN renal it was 3.35 µM; in the assay with SNB-75 CNS, 2.17 µM. In addition, the GI50 was 2.24 µM in the assay on CAKI-1 renal, 2.84 µM in the assay on SN12C renal and 2.62 µM in the assay on M14 melanoma. Moreover, the TGI in the assay with SNB-19 CNS was 10.3 µM; in the assay with HOP-62 NSCLC, 5.21 µM; with DU-145 prostate, 14.1 µM; in the assay on K-562 leukemia it was above 100 µM; in the assay on ACHN renal, above 100 µM; with SNB-75 CNS, 6.55 µM. In addition, the total growth inhibition concentration (TGI) worked out at 7.34 µM in the assay with CAKI-1 renal, 10.7 µM in the assay on SN12C renal and 8.71 µM with M14 melanoma.
`O=C(Nc1cc(Cl)ccc1O)c1cccc(Nc2ccnc(C(F)(F)F)c2)c1`: the GI50 in the assay with SNB-19 CNS was 2.42 µM; in the assay on HOP-62 NSCLC it was 4.4 µM; with DU-145 prostate, 5.22 µM; in the assay on K-562 leukemia, 0.713 µM; in the assay on ACHN renal, 2.13 µM; in the assay on SNB-75 CNS, 6.27 µM. Moreover, the GI50 is 2.61 µM in the assay with CAKI-1 renal, 3.36 µM with SN12C renal and 3.85 µM in the assay on M14 melanoma. The total growth inhibition concentration (TGI) is 13.8 µM in the assay with SNB-19 CNS; 23.5 µM with HOP-62 NSCLC; 22.6 µM with DU-145 prostate; 12.4 µM in the assay with K-562 leukemia; 81.2 µM in the assay on ACHN renal; 22.2 µM in the assay on SNB-75 CNS. Also, the figures for the TGI in the assay with CAKI-1 renal, with SN12C renal and in the assay with M14 melanoma were 12.7 µM, 25.5 µM and 18.3 µM, respectively.
`CCC(C)C1=C(O)[N+]2([O-])Oc3ccc(C4=C(O)C(=O)C(c5ccc(O)cc5)=C(O)C4=O)cc3OC2(C(C)CC)C(=O)N1O` (stereo not drawn): the GI50 was 4.95 µM with SNB-19 CNS; 9.94 µM in the assay with HOP-62 NSCLC; 30.9 µM with DU-145 prostate; 8.03 µM in the assay with K-562 leukemia; 11.6 µM in the assay with ACHN renal; above 100 µM in the assay with SNB-75 CNS. Moreover, the GI50 with CAKI-1 renal was 3.77 µM; in the assay on M14 melanoma, 2.75 µM. In addition, the TGI in the assay on SNB-19 CNS was 83.6 µM; with HOP-62 NSCLC it was above 100 µM; with DU-145 prostate it was above 100 µM; in the assay with K-562 leukemia, above 100 µM; in the assay on ACHN renal it was above 100 µM; in the assay on SNB-75 CNS, above 100 µM. For the same compound, the results for the TGI in the assay with CAKI-1 renal and in the assay with M14 melanoma were 30.4 µM and 11.5 µM, respectively.
In the case of `Clc1ccc2c(c1)N(C1CCCN(Cc3ccccc3)C1)c1ccccc1S2` (stereo not drawn), the GI50 in the assay with SNB-19 CNS was 6.02 µM; in the assay with HOP-62 NSCLC, 22.3 µM; with DU-145 prostate, 4.03 µM; in the assay on K-562 leukemia, 3.19 µM; in the assay with ACHN renal, 7.22 µM; in the assay with SNB-75 CNS it was 4.11 µM. Further, the GI50 in the assay on CAKI-1 renal was 4.38 µM; with SN12C renal, 5.79 µM; in the assay on M14 melanoma, 2 µM. In addition, the TGI in the assay on SNB-19 CNS was above 100 µM; in the assay with HOP-62 NSCLC, above 100 µM; in the assay with DU-145 prostate, 19.7 µM; in the assay with K-562 leukemia, above 100 µM; in the assay with ACHN renal, above 100 µM; in the assay with SNB-75 CNS, above 100 µM. For the same compound, the values for the TGI in the assay on CAKI-1 renal, in the assay on SN12C renal and in the assay on M14 melanoma were 24 µM, above 100 µM and 4.41 µM, respectively.
Turning to `COc1cc2c3c(n(CCCNCCCNCCN)c(=O)c2cc1OC)-c1cc2c(cc1C3=O)OCO2`, the GI50 with SNB-19 CNS is 53.9 µM; in the assay with DU-145 prostate it was 51.9 µM; in the assay with ACHN renal, 18.7 µM; in the assay on SK-MEL-2 melanoma, above 100 µM; in the assay on SNB-75 CNS, 28.9 µM; with CAKI-1 renal, 87.8 µM. In addition, the results for the GI50 in the assay on SN12C renal and in the assay on M14 melanoma were 19.8 µM and 53.9 µM, respectively. Moreover, the TGI in the assay with SNB-19 CNS is above 100 µM; in the assay on DU-145 prostate, above 100 µM; in the assay on ACHN renal, 57.1 µM; with SK-MEL-2 melanoma, above 100 µM; in the assay with SNB-75 CNS, 94.6 µM; in the assay on CAKI-1 renal, above 100 µM. The TGI was 64.3 µM in the assay on SN12C renal and above 100 µM in the assay on M14 melanoma.
With `COC1C=COC2(C)Oc3c(C)c(O)c4c(O)c(c(C5SCCS5)c(O)c4c3C2=O)NC(=O)/C(C)=C\C=CC(C)C(O)C(C)C(O)C(C)C(OC(C)=O)C1C` (stereo not drawn), the concentration for total growth inhibition (TGI) in the assay on SNB-19 CNS is 17.7 µM; in the assay on HOP-62 NSCLC, 46 µM; with DU-145 prostate it was 13.1 µM; in the assay on ACHN renal it was 10.7 µM; with SK-MEL-2 melanoma, 24.6 µM; in the assay with SNB-75 CNS, 20.5 µM. In addition, the values for the concentration for total growth inhibition (TGI) with CAKI-1 renal, with SN12C renal and in the assay with M14 melanoma were 22.8 µM, 10.1 µM and 27.5 µM, respectively.
Consider `O=C1C=C(OCC=C(C(F)(F)F)C(F)(F)F)c2ccccc2C1=O`, for which the GI50 with SNB-19 CNS was 5.62 µM; in the assay with HOP-62 NSCLC it was 1.87 µM; with DU-145 prostate, 1.75 µM; in the assay with K-562 leukemia it was 1.97 µM; in the assay with ACHN renal, 1.85 µM; in the assay on SK-MEL-2 melanoma it was 1.85 µM. Besides, the GI50 in the assay on CAKI-1 renal was 3.15 µM; in the assay with SN12C renal it was 1.09 µM; in the assay on M14 melanoma, 1.88 µM. The total growth inhibition concentration (TGI) in the assay with SNB-19 CNS came out at 19.5 µM; with HOP-62 NSCLC, 3.69 µM; in the assay with DU-145 prostate, 3.17 µM; in the assay with K-562 leukemia, 5.42 µM; in the assay on ACHN renal, 4.01 µM; with SK-MEL-2 melanoma, 4.06 µM. The TGI with CAKI-1 renal was found to be 10.4 µM; with SN12C renal it was 2.37 µM; with M14 melanoma it was 3.87 µM.
Take `CCCc1nc(Cl)c(Cl)c(Cl)n1`: the total growth inhibition concentration (TGI) is above 96.4 µM in the assay with SNB-19 CNS; above 83.4 µM in the assay with HOP-62 NSCLC; above 100 µM in the assay with DU-145 prostate; above 45.9 µM in the assay on K-562 leukemia; above 100 µM in the assay on SNB-75 CNS; 27.7 µM in the assay with CAKI-1 renal. Also, the results for the TGI in the assay with SN12C renal and with M14 melanoma were above 31.6 µM and above 76.1 µM, respectively.
In the case of `CC[C@H](C)[C@H](NC(=O)[C@H]1CCCCN1C)C(=O)N(C)[C@H](C[C@@H](OC(C)=O)c1cccc(C(=O)N[C@@H](Cc2ccccc2)C[C@H](C)C(=O)O)n1)C(C)C`, the GI50 with SNB-19 CNS was 0.00138 µM and 0.0025 µM; in the assay with HOP-62 NSCLC, 0.00275 µM and 0.0025 µM; with DU-145 prostate, 0.00286 µM and 0.0025 µM; in the assay on K-562 leukemia, 0.000539 µM and 0.0025 µM; with ACHN renal it was 0.00787 µM and 0.0025 µM; with SK-MEL-2 melanoma, 0.000774 µM and 0.0025 µM. The concentration for 50% growth inhibition (GI50) is 0.00417 µM and 0.0025 µM in the assay with SN12C renal; below 0.0025 µM with M14 melanoma. For the same compound, the total growth inhibition concentration (TGI) in the assay on SNB-19 CNS, with HOP-62 NSCLC, in the assay on DU-145 prostate, in the assay with K-562 leukemia, with ACHN renal and in the assay with SK-MEL-2 melanoma was above 25 µM each time. The concentration for total growth inhibition (TGI) in the assay with SNB-75 CNS is above 25 µM; in the assay on SN12C renal, above 25 µM; with M14 melanoma, below 0.0025 µM.
Consider `C#CC1(O)C(COP(=O)(O)OCC2OC(n3cc(F)c(=O)[nH]c3=O)CC2O)OC(n2ccc(N)nc2=O)C1O` (stereo not drawn), for which the concentration for total growth inhibition (TGI) is above 100 µM in the assay on SNB-19 CNS; 1.28 µM with HOP-62 NSCLC; above 100 µM in the assay on DU-145 prostate; above 100 µM with K-562 leukemia; above 100 µM in the assay with ACHN renal; 5.78 µM in the assay on SK-MEL-2 melanoma. In the assay with M14 melanoma, this compound displayed a concentration for total growth inhibition (TGI) of 0.74 µM. Moreover, the GI50 in the assay on HOP-62 NSCLC is below 0.0328 µM; in the assay with DU-145 prostate, below 0.01 µM; with K-562 leukemia, below 0.01 µM; in the assay with ACHN renal it was 0.0469 µM; in the assay on SK-MEL-2 melanoma, 0.0552 µM; in the assay with CAKI-1 renal, below 0.01 µM. Besides, the GI50 in the assay on SN12C renal is below 0.01 µM; with M14 melanoma, below 0.0201 µM.
Turning to `CC(=O)Nc1cc2cc(NS(=O)(=O)c3ccc(Cl)c(Cl)c3)ccc2oc1=O`, the TGI is above 100 µM in the assay with SNB-19 CNS; 46.7 µM in the assay on HOP-62 NSCLC; above 100 µM in the assay with DU-145 prostate; above 100 µM with K-562 leukemia; above 100 µM with ACHN renal; above 100 µM in the assay with SK-MEL-2 melanoma. For the same compound, the results for the TGI in the assay on CAKI-1 renal, in the assay with SN12C renal and with M14 melanoma were 56.4 µM, 64.8 µM and above 100 µM, respectively.
On to `CCN1C(=O)N(CC)C2C1NN=c1s/c(=C3\C(=O)N(C4CCCC4)c4ccccc43)c(=O)n12` (stereo not drawn), for which the GI50 in the assay with SNB-19 CNS is 3.47 µM; in the assay with HOP-62 NSCLC it was 1.54 µM; with DU-145 prostate it was 2.25 µM; with K-562 leukemia it was 0.37 µM; in the assay on ACHN renal, 1.27 µM; in the assay with SK-MEL-2 melanoma it was 2.76 µM. Further, the values for the GI50 in the assay on CAKI-1 renal, in the assay with SN12C renal and in the assay with M14 melanoma were 0.519 µM, 2.76 µM and 0.913 µM, respectively. In addition, the concentration for total growth inhibition (TGI) in the assay on SNB-19 CNS is 40.5 µM; in the assay on HOP-62 NSCLC, 14.4 µM; in the assay with DU-145 prostate, 6.59 µM; in the assay with K-562 leukemia, above 100 µM; in the assay with ACHN renal it was above 100 µM; in the assay on SK-MEL-2 melanoma, 17.6 µM. Further, the TGI is above 100 µM in the assay on CAKI-1 renal, above 100 µM in the assay with SN12C renal and 6.73 µM in the assay with M14 melanoma.
Take `O=C1Nc2ccccc2/C1=C\c1nc(-c2ccccc2F)n2ccccc12`: the GI50 in the assay with SNB-19 CNS is 4.7 µM; with HOP-62 NSCLC, 2.37 µM; in the assay with DU-145 prostate it was 3.26 µM; in the assay with K-562 leukemia it was 6.35 µM; with ACHN renal, 3.3 µM; with SK-MEL-2 melanoma, 6.81 µM. For the same compound, the GI50 is 1.79 µM in the assay on SNB-75 CNS, 4.32 µM in the assay with SN12C renal and 5.65 µM in the assay with M14 melanoma. Besides, the total growth inhibition concentration (TGI) is 16.7 µM in the assay with SNB-19 CNS; 5.93 µM with HOP-62 NSCLC; 12.9 µM in the assay on DU-145 prostate; 19.7 µM with K-562 leukemia; 10.9 µM with ACHN renal; 19.6 µM in the assay with SK-MEL-2 melanoma. Further, the TGI amounted to 4.95 µM in the assay on SNB-75 CNS, 17 µM with SN12C renal and 17.9 µM with M14 melanoma.
